Reference: paper PMC11191095, “QSAR Reveals Decreased Lipophilicity of Polar Residues Determines the Selectivity of Antimicrobial Peptide Activity” (ACS Omega, 2024)
Where a SMILES comes first, the peptide text is derived from it.

Legend:
HaCat cell line = assay: In vitro HaCat cytotoxicity (MTT); assay type: cell-based, human; conditions: 21 h exposure, OD570, relative to untreated control
Method: The HaCat cell line (Cellonex, South Africa) was cultured in Dulbecco’s Modified Eagle Medium (DMEM) supplemented with 10% heat-inactivated fetal calf serum (FCS) and 1% antibiotic-antimycotic (Abs) and maintained at 5–10% CO2, 37 °C, 95% humidity. For cytotoxicity screening, 5.56 × 10^4 cells/mL were plated in a 96-well plate. After 24 h incubation, the cells are initially exposed to each peptide at a concentration of 256 μg/mL or 0.1% Triton-X-100 as the control for 21 h. If cytotoxicity was observed, at a level of significance of p < 0.0001 compared with the untreated control after 21 h, a dose-response assay was undertaken. Cell viability was determined by adding 10% 3-(4,5-dimethyl-2-thiazolyl)-2,5-diphenyl-2H-tetrazolium bromide (MTT) (1 mg/mL), to each well and after a further 3 h incubation the media was discarded, and the formazan crystals dissolved by adding 25% DMSO in ethanol. The absorbance was measured at OD570 by using the FLUOstar Omega multidetection microplate reader (BMG Labtech). Percentage cell viability was calculated relative to the untreated control. The LC50 was defined as the concentration of AMP treatment that results in 50% lethality of HaCat cells and was determined from the dose-response curves.

[1] = test system: S. aureus (MRSA) NCTC 13616; assay: microbe, parasite or virus in culture; assay type: cell-based, Staphylococcus aureus; conditions: S. aureus (MRSA) NCTC 13616 (R); shown in µM
Outline: (§1)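 Peptides 128→2 μg/mL, 2-fold series; inoculum ~5 × 10^5 CFU/mL from overnight culture (OD600 0.01, mixed 1:1). MHB non-cation-adjusted for bacteria, RPMI 1640 + 2% glucose for fungi. 37 °C, 20 h, OD600. MIC50/MIC90 at 50%/90% inhibition; n ≥ 3.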

S. aureus (MRSA) USA300 = assay: microbe, parasite or virus in culture; assay type: cell-based, Staphylococcus aureus; conditions: S. aureus (MRSA) USA300 (R); shown in µM
Outline: as §1

S. aureus (MRSA) 1199B = assay: microbe, parasite or virus in culture; assay type: cell-based, Staphylococcus aureus; conditions: S. aureus (MRSA) 1199B (R); shown in µM
Outline: as §1

[2] = test system: S. aureus (MSSA) ATCC 9144; assay: microbe, parasite or virus in culture; assay type: cell-based, Staphylococcus aureus; conditions: S. aureus (MSSA) ATCC 9144 (S); shown in µM
Outline: as §1

E. coli NCTC 12923 = assay: microbe, parasite or virus in culture; assay type: cell-based, Escherichia coli; conditions: E. coli NCTC 12923 (S); shown in µM
Outline: as §1

E. coli LEC001 = assay: microbe, parasite or virus in culture; assay type: cell-based, Escherichia coli; conditions: E. coli LEC001 (R); shown in µM
Outline: as §1

C. auris TDG 1912 = assay: microbe, parasite or virus in culture; assay type: cell-based, Candida auris; conditions: C. auris TDG 1912
Outline: as §1

K. pneumoniae M6 = assay: microbe, parasite or virus in culture; assay type: cell-based, Klebsiella pneumoniae; conditions: K. pneumoniae M6 (S); shown in µM
Outline: as §1

K. pneumoniae NCTC 13368 = assay: microbe, parasite or virus in culture; assay type: cell-based, Klebsiella pneumoniae; conditions: K. pneumoniae NCTC 13368 (R); shown in µM
Outline: as §1

P. aeruginosa PAO1 = assay: microbe, parasite or virus in culture; assay type: cell-based, Pseudomonas aeruginosa; conditions: P. aeruginosa PAO1 (S)
Outline: as §1

P. aeruginosa NCTC 13437 = assay: microbe, parasite or virus in culture; assay type: cell-based, Pseudomonas aeruginosa; conditions: P. aeruginosa NCTC 13437 (R); shown in µM
Outline: as §1

[3] = test system: C. parapsilosis NCPF 3209; assay: microbe, parasite or virus in culture; assay type: cell-based; conditions: C. parapsilosis NCPF 3209; shown in µM
Outline: as §1

C. albicans NCPF 3281 = assay: microbe, parasite or virus in culture; assay type: cell-based; conditions: C. albicans NCPF 3281
Outline: as §1

C. krusei NCPF 3876 = assay: microbe, parasite or virus in culture; assay type: cell-based; conditions: C. krusei NCPF 3876; shown in µM
Outline: as §1

C. glabrata NCPF 8018 = assay: microbe, parasite or virus in culture; assay type: cell-based; conditions: C. glabrata NCPF 8018
Outline: as §1

C. tropicalis NCPF 8760 = assay: microbe, parasite or virus in culture; assay type: cell-based; conditions: C. tropicalis NCPF 8760; shown in µM
Outline: as §1

A. baumannii ATCC 17978 = assay: microbe, parasite or virus in culture; assay type: cell-based, Acinetobacter baumannii; conditions: A. baumannii ATCC 17978 (S); shown in µM
Outline: as §1

A. baumannii AYE = assay: microbe, parasite or virus in culture; assay type: cell-based, Acinetobacter baumannii; conditions: A. baumannii AYE (R); shown in µM
Outline: as §1

[4] = 50% growth inhibition, RPMI 1640 + 2% glucose, 37 °C, 20 h
[5] = 90% growth inhibition, RPMI 1640 + 2% glucose, 37 °C, 20 h

CC[C@H](C)[C@H](NC(=O)[C@H](C)NC(=O)[C@H](Cc1c[nH]cn1)NC(=O)[C@@H]1CCCN1C(=O)[C@@H](NC(=O)[C@H](CC(C)C)NC(=O)[C@H](CO)NC(=O)[C@H](Cc1ccccc1)NC(=O)[C@H](CC(C)C)NC(=O)[C@@H](N)Cc1ccccc1)[C@@H](C)CC)C(=O)NCC(=O)NCC(=O)N[C@@H](CC(C)C)C(=O)N[C@H](C(=O)N[C@@H](CO)C(=O)N[C@@H](C)C(=O)N[C@@H](Cc1ccccc1)C(=O)N[C@@H](CCCCN)C(=O)O)[C@@H](C)CC [AamAP1]
44.3 ±20.2%: % HaCat cell death at initial screening (256μg/mL) ± SD (HaCat cell line)

CC[C@H](C)[C@H](N)C(=O)N[C@@H](CC(C)C)C(=O)NCC(=O)N[C@@H](CCCCN)C(=O)N[C@H](C(=O)N[C@@H](Cc1c[nH]c2ccccc12)C(=O)N[C@@H](CCCCN)C(=O)N1CCC[C@H]1C(=O)N[C@H](C(=O)N[C@@H](CCCCN)C(=O)N[C@@H](CCCCN)C(=O)N[C@@H](CC(C)C)C(=O)N[C@@H](Cc1ccccc1)C(N)=O)[C@@H](C)CC)[C@@H](C)CC [K7P8K11-IsCTa] (H-ILGKIWKPIKKLF-NH2)
19.8 µM: Modal MIC (S. aureus (MRSA) 1199B) | Modal MIC (K. pneumoniae M6) | Modal MIC50 (C. krusei NCPF 3876)
> 128 µg/mL: Modal MIC50 (C. auris TDG 1912; 50% growth inhibition, RPMI 1640 + 2% glucose, 37 °C, 20 h, OD600) | Modal MIC90 (C. auris TDG 1912; 90% growth inhibition, RPMI 1640 + 2% glucose, 37 °C, 20 h, OD600) | Modal MIC (P. aeruginosa PAO1; MHB, 37 °C, 20 h, OD600, min. three biological repeats) | Modal MIC50 (C. albicans NCPF 3281; [4]) | Modal MIC90 (C. albicans NCPF 3281; [5]) | Modal MIC50 (C. glabrata NCPF 8018; [4]) | Modal MIC90 (C. glabrata NCPF 8018; [5])
79 µM: Modal MIC90 [3]
89.2 ± 9.1%: % HaCat cell death at initial screening (256μg/mL) ± SD (HaCat cell line)
4.9 µM: Modal MIC [2] | Modal MIC50 (C. tropicalis NCPF 8760) | Modal MIC (A. baumannii ATCC 17978) | Modal MIC (A. baumannii AYE)
39.5 µM: Modal MIC [1] | Modal MIC (S. aureus (MRSA) USA300) | Modal MIC (E. coli LEC001) | Modal MIC (K. pneumoniae NCTC 13368) | Modal MIC (P. aeruginosa NCTC 13437) | Modal MIC50 [3] | Modal MIC90 (C. krusei NCPF 3876)
9.9 µM: Modal MIC (E. coli NCTC 12923) | Modal MIC90 (C. tropicalis NCPF 8760)
> 79 µM: Modal MIC50 (C. auris TDG 1912; shown in µM) | Modal MIC90 (C. auris TDG 1912; shown in µM) | Modal MIC (P. aeruginosa PAO1; shown in µM) | Modal MIC50 (C. albicans NCPF 3281; shown in µM) | Modal MIC90 (C. albicans NCPF 3281; shown in µM) | Modal MIC50 (C. glabrata NCPF 8018; shown in µM) | Modal MIC90 (C. glabrata NCPF 8018; shown in µM)
